Publication PMC7391767, “Molecular mechanisms underlying menthol binding and activation of TRPM8 ion channel” (Nature Communications, 2020)
“And” between values parts separate entries of the source, which are not always exact repeats. Equal values may be shown once. “Also recorded” adds a separate entry of the source. Read-outs that look alike come from different tables or passages of the source.

Tests used:
Format in all cases: cell-based
wild-type TRPM8 [1] = target: T1, wild-type TRPM8 (Mus musculus, UniProt Q8R4D5); assay: whole-cell patch-clamp recording of ligand activation
T1 construct: expressed in transfected cells; host or cells: HEK293T
T1 sequence (Q8R4D5 whole entry): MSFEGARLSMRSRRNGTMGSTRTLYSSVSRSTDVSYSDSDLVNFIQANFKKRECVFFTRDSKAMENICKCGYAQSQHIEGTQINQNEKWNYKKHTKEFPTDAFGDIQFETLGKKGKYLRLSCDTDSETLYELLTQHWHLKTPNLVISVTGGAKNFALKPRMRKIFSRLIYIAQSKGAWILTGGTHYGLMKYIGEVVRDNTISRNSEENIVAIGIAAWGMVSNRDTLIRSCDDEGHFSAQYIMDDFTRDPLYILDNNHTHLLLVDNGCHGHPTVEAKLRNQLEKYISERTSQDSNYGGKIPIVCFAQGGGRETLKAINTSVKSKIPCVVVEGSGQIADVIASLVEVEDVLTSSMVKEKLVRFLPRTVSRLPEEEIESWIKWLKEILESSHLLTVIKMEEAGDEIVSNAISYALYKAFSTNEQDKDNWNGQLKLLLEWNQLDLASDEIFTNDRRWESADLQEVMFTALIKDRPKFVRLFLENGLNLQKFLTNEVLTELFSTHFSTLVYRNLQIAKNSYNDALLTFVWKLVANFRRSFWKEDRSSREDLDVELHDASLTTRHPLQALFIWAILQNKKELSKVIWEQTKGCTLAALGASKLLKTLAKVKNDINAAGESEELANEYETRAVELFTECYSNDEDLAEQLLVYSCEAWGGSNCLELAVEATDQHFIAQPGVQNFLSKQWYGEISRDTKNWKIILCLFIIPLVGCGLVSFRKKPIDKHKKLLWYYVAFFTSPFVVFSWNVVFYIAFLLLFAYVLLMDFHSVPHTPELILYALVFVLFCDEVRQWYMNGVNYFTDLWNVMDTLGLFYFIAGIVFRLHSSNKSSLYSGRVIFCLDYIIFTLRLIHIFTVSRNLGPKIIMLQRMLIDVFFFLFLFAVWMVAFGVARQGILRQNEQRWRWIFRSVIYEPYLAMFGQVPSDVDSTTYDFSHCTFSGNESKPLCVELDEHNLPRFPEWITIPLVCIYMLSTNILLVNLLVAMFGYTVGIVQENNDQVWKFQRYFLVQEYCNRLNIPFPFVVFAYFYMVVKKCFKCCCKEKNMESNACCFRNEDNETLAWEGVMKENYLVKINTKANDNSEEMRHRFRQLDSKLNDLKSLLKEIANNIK
Description: (§1) Murine TRPM8 was used in this study. Point mutations were made by Fast Mutagenesis Kit V2 (SBS Genetech). Primers used to generate point mutations are summarized in Supplementary Table 2.
Cells were transiently transfected with cDNA constructs by Lipofectamine 3000 (Life Technologies) following the manufacturer’s protocol. Patch-clamp recordings were performed 1–2 days after transfection.
(§2) Patch-clamp recordings were performed with a HEKA EPC10 amplifier controlled by PatchMaster software (HEKA). Whole-cell recordings were performed at ±80 mV. Patch pipettes were prepared from borosilicate glass and fire-polished to resistance of ~4 MΩ. For whole-cell recording, serial resistance was compensated by 60%. For single-channel recordings, patch pipettes were fire-polished to a higher resistance of 6-to-10 MΩ and then recorded in the inside-out configuration. To maximize the chance of obtaining a patch with only one channel, single-channel recordings were performed about 8 h after transfection. A solution with 130 mM NaCl, 10 mM glucose, 0.2 mM EDTA, and 3 mM HEPES (pH 7.2) was used in both bath and pipette for either whole-cell or single-channel recordings. Membrane potential was clamped at +80 mV for single-channel recordings. Current was sampled at 10 kHz and filtered at 2.9 kHz. All recordings were performed at room temperature (22 °C) with the maximum variation of 1 °C.
(§3) Ligands such as menthol and its analogs were perfused to membrane patch by a gravity-driven system (RSC-200, Bio-Logic). Bath and ligand solution were delivered through separate tubes to minimize the mixing of solutions. Patch pipette was placed in front of the perfusion tube outlet.
(§4) Data from whole-cell recordings were analyzed in Igor Pro version 6.1 (WaveMatrix). EC50 values were derived from fitting a Hill equation to the concentration–response relationship. […] To distinguish these possibilities, dissociation constant (Kd) for ligand binding was estimated assuming the following gating scheme:1 C0↔KdC1↔LO, where L is the equilibrium constant for the final closed-to-open transition.

TRPM8 Y745H = target: T2, TRPM8 Y745H (Mus musculus, UniProt Q8R4D5, Y745H); assay: whole-cell patch-clamp recording of menthol activation; conditions: Y745H mutation
T2 construct: expressed in transfected cells; host or cells: HEK293T
T2 sequence (Q8R4D5 whole entry Y745H): as the sequence (Q8R4D5 whole entry) above, with Y745H counted along it
Description: as §1
(§5) HEK293T cells purchased from Kunming Cell Bank, Kunming Institute of Zoology, Chinese Academy of Sciences (ATCC, CRL-3216) were cultured in Dulbecco’s modified Eagle’s medium supplemented with 20 mM L-glutamine and 10% fetal bovine serum. Cells were transiently transfected with cDNA constructs by Lipofectamine 3000 (Life Technologies) following the manufacturer’s protocol. Patch-clamp recordings were performed 1–2 days after transfection.
as §2, with “Membrane potential was clamped at +80 mV for single-channel recordings. Current was sampled at 10 kHz and filtered at 2.9 kHz. All recordings were performed at room temperature (22 °C) with the maximum variation of 1 °C.” left out

TRPM8 I846V = target: T3, TRPM8 I846V (Mus musculus, UniProt Q8R4D5, I846V); assay: whole-cell patch-clamp and thermodynamic mutant cycle analysis
T3 construct: expressed in transfected cells; host or cells: HEK293T
T3 sequence (Q8R4D5 whole entry I846V): as the sequence (Q8R4D5 whole entry) above, with I846V counted along it
Description: Murine TRPM8 was used in this study. Point mutations were made by Fast Mutagenesis Kit V2 (SBS Genetech). Primers used to generate point mutations are summarized in Supplementary Table 2. All mutations were confirmed by sequencing.
as §5, §2, §3
Data from whole-cell recordings were analyzed in Igor Pro version 6.1 (WaveMatrix). EC50 values were derived from fitting a Hill equation to the concentration–response relationship. Changes in EC50 by point mutation may be caused by either perturbation of ligand bind or channel gating or both. To distinguish these possibilities, dissociation constant (Kd) for ligand binding was estimated assuming the following gating scheme:1 C0↔KdC1↔LO, where L is the equilibrium constant for the final closed-to-open transition.
(§6) To perform thermodynamic cycle analysis, Kd values of four channel-ligand combinations (WT channel, menthol: Kd _1; Mutant channel, menthol: Kd _2; WT channel, menthol analog: Kd _3; Mutant channel, menthol analog: Kd _4) were determined separately. The strength of coupling was determined by the coupling energy (kT multiplied by LnΩ, where k is the Boltzmann constant and T is temperature in Kelvin). LnΩ was calculated by Eq. (2) as[51]2 LnΩ=LnKd_1⋅Kd_4/Kd_2⋅Kd_3.

wild-type TRPM8 [2] = target: T1, wild-type TRPM8; assay: open probability from noise analysis of macroscopic current and single-channel recordings
Description: as §2
From single-channel recordings, the open probability (Po) was calculated after events detection with a hidden Markov approach in the software QuB[49] (http://www.qub.buffalo.edu/). A dead time of 0.32 ms was imposed. As a complementary approach, Po was also estimated from noise analysis[52] of whole-cell recordings. Briefly, the mean current amplitude (I), the squared deviations in current amplitude from the mean value (σ^2), and the single-channel current (i) were measured experimentally from a membrane patch of ion channels. Then the number of ion channels clamped in that patch (N) was determined as3 N=I^2/i⋅I−σ^2.
The maximum current when each of ion channel is at the open state with a Po of 1 is equal to i × N. Then the open probability was calculated as the ratio between the measured macroscopic current and the maximum current calculated by noise analysis. To estimate channel conductance, current amplitude was estimated from all-point histogram of single-channel recordings.

TRPM8 R842K = target: T4, TRPM8 R842K (Mus musculus, UniProt Q8R4D5, R842K); assay: whole-cell patch-clamp and thermodynamic mutant cycle analysis
T4 construct: expressed in transfected cells; host or cells: HEK293T
T4 sequence (Q8R4D5 whole entry R842K): as the sequence (Q8R4D5 whole entry) above, with R842K counted along it
Description: as §1, §5, §2, §3, §4, §6

TRPM8 Y1005F = target: T5, TRPM8 Y1005F (Mus musculus, UniProt Q8R4D5, Y1005F); assay: as above; conditions: patch-clamp, peer review file
T5 construct: expressed in transfected cells; host or cells: HEK293T
T5 sequence (Q8R4D5 whole entry Y1005F): as the sequence (Q8R4D5 whole entry) above, with Y1005F counted along it
Description: as §1, §5, §2, §3, §4, §6

[3] = calculated from concentration–response curves, read-out: Kd, Ave

Question: Which results are given for `CC(C)[C@@H]1CC[C@@H](C)C[C@H]1O` [menthol, (−)-menthol]?
Answer: L (equilibrium constant between closed and open states upon ligand binding), Ave (wild-type TRPM8 [1]; WT): 4.672 and 4.642; concentration–response curve value, ave (wild-type TRPM8 [1]; WT, 1 microM): 0.025 and 0.02453; concentration–response curve value, single recording (wild-type TRPM8 [1]; WT, 1 microM): 0.025 and 0.02453; concentration–response curve value, ave (wild-type TRPM8 [1]; WT, 10 microM): 0.025 and 0.0249; concentration–response curve value, single recording (wild-type TRPM8 [1]; WT, 10 microM): 0.021 and 0.029 and 0.02072 and 0.02909; concentration–response curve value, ave (wild-type TRPM8 [1]; WT, 20 microM): 0.043; concentration–response curve value, ave (wild-type TRPM8 [1]; WT, 30 microM): 0.090 and 0.08976; concentration–response curve value, ave (wild-type TRPM8 [1]; WT, 100 microM): 0.426 and 0.4264; concentration–response curve value, single recording (wild-type TRPM8 [1]; WT, 100 microM): 0.426 and 0.453 and 0.400 and 0.4256 and 0.4532 and 0.4003; concentration–response curve value, ave (wild-type TRPM8 [1]; WT, 500 microM): 0.760 and 0.7604; concentration–response curve value, single recording (wild-type TRPM8 [1]; WT, 500 microM): 0.796 and 0.730 and 0.755 and 0.7302 and 0.7548; concentration–response curve value, ave (wild-type TRPM8 [1]; WT, 1000 microM): 0.801 and 0.8014; concentration–response curve value, single recording (wild-type TRPM8 [1]; WT, 1000 microM): 0.847 and 0.769 and 0.788 and 0.8469 and 0.7692 and 0.7882; Kd (wild-type TRPM8 [1]; WT, calculated from concentration–response curves (EC50 and Po max), read-out: Kd, Ave): 966 µM; Hill coefficient (wild-type TRPM8 [1]; wild-type TRPM8): 1.74 ± 0.06; Menthol activation (TRPM8 Y745H): barely activated; also recorded: virtually abolished; L (equilibrium constant between closed and open states upon ligand binding), Ave (TRPM8 I846V): 5.981; concentration–response curve value, ave (TRPM8 I846V; 1 microM): 0.07755; concentration–response curve value, ave (TRPM8 I846V; 20 microM): 0.2593; concentration–response curve value, ave (TRPM8 I846V; 100 microM): 0.6986; concentration–response curve value, ave (TRPM8 I846V; 500 microM): 0.7722; concentration–response curve value, ave (TRPM8 I846V; 2000 microM): 0.7707; concentration–response curve value, single recording (TRPM8 I846V; 2000 microM): 0.8798 and 0.8106 and 0.8028 and 0.882 and 0.5707 and 0.6784; Kd (TRPM8 I846V; [3]): 120 µM; Kd (TRPM8 I846V; read-out: Kd, single recording): 88.3 µM and 109 µM and 97.6 µM and 116 µM and 189 µM; agonist nature (wild-type TRPM8 [2]; noise analysis of macroscopic current, confirmed in single-channel recordings): partial agonist; maximum open probability (Po max) (wild-type TRPM8 [2]; wild-type TRPM8, near saturating concentration (menthol 500 µM)): 0.81 ± 0.03; L (equilibrium constant between closed and open states upon ligand binding), Ave (TRPM8 R842K): 18.3882; L, single recording (TRPM8 R842K): 24.6476 and 13.2288 and 17.2882; concentration–response curve value, ave (TRPM8 R842K; 20 microM): 0.01439; concentration–response curve value, ave (TRPM8 R842K; 100 microM): 0.2373; concentration–response curve value, single recording (TRPM8 R842K; 100 microM): 0.2375 and 0.1865 and 0.1541 and 0.2977 and 0.2927 and 0.2 and 0.2925; concentration–response curve value, ave (TRPM8 R842K; 500 microM): 0.6774; concentration–response curve value, single recording (TRPM8 R842K; 500 microM): 0.6802 and 0.7221 and 0.591 and 0.6718 and 0.7751 and 0.601 and 0.7009; concentration–response curve value, ave (TRPM8 R842K; 1000 microM): 0.8246; concentration–response curve value, single recording (TRPM8 R842K; 1000 microM): 0.892 and 0.8781 and 0.8012 and 0.8485 and 0.8182 and 0.7917 and 0.7425; concentration–response curve value, ave (TRPM8 R842K; 2000 microM): 0.8146; concentration–response curve value, single recording (TRPM8 R842K; 2000 microM): 0.9219 and 0.8808 and 0.8026 and 0.7789 and 0.777 and 0.8121 and 0.7292; Kd (TRPM8 R842K; [3]): 8710 µM; Kd (TRPM8 R842K; read-out: Kd, single recording): 8480 µM and 6830 µM and 10800 µM; EC50 (TRPM8 Y1005F): 498 ± 8.7 µM
